# Results taken from ChEMBL document CHEMBL1126278, “New neplanocin analogues. 1. Synthesis of 6'-modified neplanocin A derivatives as broad-spectrum antiviral agents” (J Med Chem, 1992).
# Columns and labels:
# HEL [1] = experiment: Inhibitory effect on replication of DNA virus VZV (YS) on HEL cell line.; assay type: functional, cell-based; conditions: Homo sapiens
# HeLa [2] = experiment: cells; conditions: Homo sapiens
# MDCK [3] = experiment: Inhibitory effect on replication of RNA virus cell morphology in MDCK cell line.; assay type: functional, cell-based; conditions: Canis lupus familiaris
# HEL [4] = experiment: Inhibitory effect on replication of DNA virus CMV (Davis) on HEL cell line.; assay type: functional, cell-based; conditions: Homo sapiens
# PRK [5] = experiment: Inhibitory effect on replication of DNA virus Cell morphology on PRK cell line; assay type: functional, cell-based; conditions: Oryctolagus cuniculus
# ESM [6] = experiment: Inhibitory effect on replication of DNA virus TK-HSV-1 (B2006) on ESM cell line.; assay type: functional, cell-based
# Vero [7] = experiment: Inhibitory effect on replication of RNA virus protein synthesis in Vero cell line.; assay type: functional, cell-based; conditions: Chlorocebus sabaeus
# HEL [8] = experiment: Inhibitory effect on replication of DNA virus CMV (AD-169) on HEL cell line.; assay type: functional, cell-based; conditions: Homo sapiens
# HEL [9] = experiment: Inhibitory effect on replication of DNA virus VZV (Oka) on HEL cell line.; assay type: functional, cell-based; conditions: Homo sapiens
# Vero [10] = experiment: Inhibitory effect on replication of RNA virus coxsB-4 in Vero cell line; assay type: functional, cell-based; conditions: Chlorocebus sabaeus
# ESM [11] = experiment: Inhibitory effect on replication of DNA virus Cell morphology on ESM cell line; assay type: functional, cell-based
# PRK [12] = experiment: Inhibitory effect on replication of RNA virus VSV in PRK cell line.; assay type: functional, cell-based; conditions: Oryctolagus cuniculus
# Vero [13] = experiment: Inhibitory effect on replication of RNA virus cell morphology in Vero cell line.; assay type: functional, cell-based; conditions: Chlorocebus sabaeus
# HeLa [14] = experiment: Inhibitory effect on replication of DNA virus RNA virus cell morphology in HeLa cell line.; assay type: functional, cell-based; conditions: Homo sapiens
# MT4 [15] = experiment: Inhibitory effect on replication of RNA virus cell growth in MT-4 cell line.; assay type: functional, cell-based; conditions: Homo sapiens
# ESM [16] = experiment: Inhibitory effect on replication of DNA virus VV on ESM cell line.; assay type: functional, cell-based
# PRK [17] = experiment: Inhibitory effect on replication of RNA virus cell morphology in PRK cell line.; assay type: functional, cell-based; conditions: Oryctolagus cuniculus
# Vero [18] = experiment: Inhibitory effect on replication of RNA virus SV in Vero cell line.; assay type: functional, cell-based; conditions: Chlorocebus sabaeus
# ESM [19] = experiment: Inhibitory effect on replication of DNA virus HSV-1 (KOS) in ESM cell line; assay type: functional, cell-based
# HeLa [20] = experiment: Inhibitory effect on replication of RNA virus coxsB-4 in HeLa cell line.; assay type: functional, cell-based; conditions: Homo sapiens
# HEL [21] = experiment: Inhibitory effect on replication of DNA virus TK-VZV (YSR) on HEL cell line.; assay type: functional, cell-based; conditions: Homo sapiens
# Vero [22] = experiment: Inhibitory effect on replication of RNA virus JV in Vero cell line.; assay type: functional, cell-based; conditions: Chlorocebus sabaeus
# PRK [23] = experiment: Inhibitory effect on replication of DNA virus VV on PRK cell line.; assay type: functional, cell-based; conditions: Oryctolagus cuniculus
# Vero [24] = experiment: Inhibitory effect on replication of RNA virus reo-1 in Vero cell line.; assay type: functional, cell-based; conditions: Chlorocebus sabaeus
# [25] = Inhibitory effect on replication of DNA virus HSV-2 (G) in PRK cell line.; assay type: functional, cell-based; conditions: Oryctolagus cuniculus
# Vero [26] = experiment: Inhibitory effect on replication of RNA virus TV in Vero cell line.; assay type: functional, cell-based; conditions: Chlorocebus sabaeus
# MDCK [27] = experiment: cells; conditions: Canis lupus familiaris
# Vero [28] = experiment: Inhibitory effect on replication of RNA virus RNA synthesis in Vero cell line.; assay type: functional, cell-based; conditions: Chlorocebus sabaeus
# ESM [29] = experiment: Inhibitory effect on replication of DNA virus HSV-2 (G) in ESM cell line; assay type: functional, cell-based
# ESM [30] = experiment: Inhibitory effect on replication of RNA virus cell morphology in ESM cell line.; assay type: functional, cell-based
# Vero [31] = experiment: Inhibitory effect on replication of RNA virus measles on Vero cell line.; assay type: functional, cell-based; conditions: Chlorocebus sabaeus
# ESM [32] = experiment: Inhibitory effect on replication of DNA virus TK-HSV-1 (VMW 1837) on ESM cell line.; assay type: functional, cell-based
# Vero [33] = experiment: Inhibitory effect on replication of RNA virus PV-3 in Vero cell line.; assay type: functional, cell-based; conditions: Chlorocebus sabaeus
# MT4 [34] = experiment: Inhibitory effect on replication of RNA virus HIV-1 in MT-4 cell line.; assay type: functional, cell-based; conditions: Homo sapiens
# [35] = Inhibitory effect on replication of DNA virus HSV-1 (KOS) in PRK cell line.; assay type: functional, cell-based; conditions: Oryctolagus cuniculus
# HEL [36] = experiment: Inhibitory effect on replication of DNA virus TK-VZV (07-1) on HEL cell line.; assay type: functional, cell-based; conditions: Homo sapiens
# Vero [37] = experiment: Inhibitory effect on replication of RNA virus SFV in Vero cell line; assay type: functional, cell-based; conditions: Chlorocebus sabaeus
# HEL [38] = experiment: Inhibitory effect on replication of DNA virus Cell growth on HEL cell line.; assay type: functional, cell-based; conditions: Homo sapiens
# HeLa [39] = experiment: Inhibitory effect on replication of RNA virus VSV in HeLa cell line.; assay type: functional, cell-based; conditions: Homo sapiens
# ESM [40] = experiment: Inhibitory effect on replication of RNA virus VSV in ESM cell line.; assay type: functional, cell-based
# HeLa [41] = experiment: Inhibitory effect on replication of RNA virus RSV in HeLa cell line; assay type: functional, cell-based; conditions: Homo sapiens
# MDCK [42] = experiment: cells; conditions: Canis lupus familiaris; remark: listed apart in the source
# HeLa [43] = experiment: Inhibitory effect on replication of RNA virus cell morphology in HeLa cell line.; assay type: functional, cell-based; conditions: Homo sapiens
# Adenosylhomocysteinase = Adenosylhomocysteinase (Mus musculus, UniProt P50247); experiment: Inhibitory effect against L929 Cell S-adenosyl-L-homocysteine hydrolase
# MT4 [44] = experiment: Inhibitory effect on replication of RNA virus HIV-2 in MT-4 cell line.; assay type: functional, cell-based; conditions: Homo sapiens
# Sequence of Adenosylhomocysteinase (P50247 whole entry): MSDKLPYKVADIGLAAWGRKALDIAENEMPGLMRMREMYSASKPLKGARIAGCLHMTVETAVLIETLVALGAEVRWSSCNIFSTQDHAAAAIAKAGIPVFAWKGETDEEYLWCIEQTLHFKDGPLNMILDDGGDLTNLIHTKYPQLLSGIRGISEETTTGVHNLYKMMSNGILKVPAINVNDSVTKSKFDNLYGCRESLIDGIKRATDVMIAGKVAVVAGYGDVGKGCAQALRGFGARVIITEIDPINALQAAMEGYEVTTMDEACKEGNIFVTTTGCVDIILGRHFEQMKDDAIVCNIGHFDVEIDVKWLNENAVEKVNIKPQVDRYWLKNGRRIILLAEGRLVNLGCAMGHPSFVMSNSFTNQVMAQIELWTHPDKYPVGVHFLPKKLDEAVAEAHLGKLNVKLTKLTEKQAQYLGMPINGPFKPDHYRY
structure (smiles),measurement,setting,value
Nc1ncnc2c1ncn2[C@@H]1C=C(CO)[C@@H](O)[C@H]1O [NEOPLANOCIN A],IC50,HEL [1],5 µg/mL
same,IC50,HeLa [2],> 40 µg/mL
same,IC50,MDCK [3],20 µg/mL
same,IC50,HEL [4],0.2 µg/mL
same,IC50,PRK [5],40 µg/mL
same,IC50,ESM [6],4 µg/mL
same,IC50,Vero [7],4.3 µg/mL
same,IC50,HEL [8],0.3 µg/mL
same,IC50,HEL [9],8 µg/mL
same,IC50,Vero [10],> 40 µg/mL
same,IC50,ESM [11],40 µg/mL
same,IC50,PRK [12],0.2 µg/mL
same,IC50,Vero [13],10 µg/mL
same,IC50,HeLa [14],20 µg/mL
same,IC50,MT4 [15],0.02 µg/mL
same,IC50,ESM [16],0.2 µg/mL
same,IC50,PRK [17],40 µg/mL
same,IC50,Vero [18],> 40 µg/mL
same,IC50,ESM [19],20 µg/mL
same,IC50,HeLa [20],> 40 µg/mL
same,IC50,HEL [21],2 µg/mL
same,IC50,Vero [22],0.4 µg/mL
same,IC50,PRK [23],0.2 µg/mL
same,IC50,Vero [24],0.4 µg/mL
same,IC50,[25],> 40 µg/mL
same,IC50,Vero [26],0.4 µg/mL
same,IC50,MDCK [27],> 20 µg/mL
same,IC50,Vero [28],0.21 µg/mL
same,IC50,ESM [29],10 µg/mL
same,IC50,ESM [30],40 µg/mL
same,IC50,Vero [31],0.2 µg/mL
same,IC50,ESM [32],7 µg/mL
same,IC50,Vero [33],0.4 µg/mL
same,IC50,MT4 [34],> 0.006 µg/mL
same,IC50,[35],> 40 µg/mL
same,IC50,HEL [36],5 µg/mL
same,IC50,Vero [37],> 40 µg/mL
same,IC50,HEL [38],16 µg/mL
same,IC50,HeLa [39],0.2 µg/mL
same,IC50,ESM [40],0.2 µg/mL
same,IC50,HeLa [41],0.2 µg/mL
same,IC50,MDCK [42],> 20 µg/mL
CC1=C[C@@H](n2cnc3c(N)ncnc32)[C@H](O)[C@@H]1O,IC50,HEL [1],2 µg/mL
same,IC50,HeLa [2],> 200 µg/mL
same,IC50,MDCK [3],> 100 µg/mL
same,IC50,HeLa [43],> 400 µg/mL
same,IC50,HEL [4],1.5 µg/mL
same,IC50,PRK [5],> 400 µg/mL
same,IC50,Vero [7],4.7 µg/mL
same,IC50,HEL [8],2.5 µg/mL
same,IC50,HEL [9],20 µg/mL
same,IC50,Vero [10],> 200 µg/mL
same,IC50,PRK [12],0.7 µg/mL
same,IC50,Vero [13],40 µg/mL
same,Ki,Adenosylhomocysteinase,150 nM
same,IC50,MT4 [15],2.5 µg/mL
same,IC50,PRK [17],> 400 µg/mL
same,IC50,Vero [18],> 200 µg/mL
same,IC50,HeLa [20],> 200 µg/mL
same,IC50,HEL [21],10 µg/mL
same,IC50,Vero [22],0.4 µg/mL
same,IC50,PRK [23],0.7 µg/mL
same,IC50,Vero [24],0.7 µg/mL
same,IC50,[25],> 200 µg/mL
same,IC50,Vero [26],0.4 µg/mL
same,IC50,MDCK [27],> 100 µg/mL
same,IC50,Vero [28],1.7 µg/mL
same,IC50,Vero [31],4 µg/mL
same,IC50,Vero [33],20 µg/mL
same,IC50,MT4 [34],> 1.5 µg/mL
same,IC50,[35],> 200 µg/mL
same,IC50,HEL [36],4 µg/mL
same,IC50,Vero [37],> 200 µg/mL
same,IC50,MT4 [44],> 1.5 µg/mL
same,IC50,HeLa [39],7 µg/mL
same,IC50,HeLa [41],10 µg/mL
same,IC50,MDCK [42],> 100 µg/mL
